Test results published in ChEMBL document CHEMBL4613240, “Pagoamide A, a Cyclic Depsipeptide Isolated from a Cultured Marine Chlorophyte, Derbesia sp., Using MS/MS-Based Molecular Networking” (J Nat Prod, 2020).
Active and inactive are the calls of the source. The rule behind the calls is not given here.

Assays:
[1] = tested on: NCI-H460; test: Cytotoxicity against human NCI-H460 cells at 30 uM incubated for 48 hrs by MTT assay; assay type: functional, cell-based
[2] = tested on: Cerebral cortex neuron; test: Modulation of calcium oscillation in Swiss-Webster gravid dams mouse cerebrocortical neurons measured for 2 mins on day 12 by fluo-3 AM dye based fluorescence assay; assay type: functional, cell-based

SMILES: CC(C)[C@@H]1NC(=O)[C@@H](Cc2ccccc2)NC(=O)[C@@H](C)NC(=O)[C@H](CO)NC(=O)[C@@H](NC(=O)[C@@H](CO)NC(=O)c2csc(CNC(=O)c3csc([C@H](C(C)C)N(C)C)n3)n2)[C@@H](C)OC(=O)[C@H](Cc2ccccc2)NC1=O
- Activity [1]: inactive
- Activity [2]: inactive
